Data: ChEMBL document CHEMBL3351580, “Pyrano-isochromanones as IL-6 inhibitors: synthesis, in vitro and in vivo antiarthritic activity” (J Med Chem, 2014)
pIC50: −log10 of the molar value. Active and inactive are the calls of the source. The rule behind the calls is not given here.

Legend:
[1] = test system: Mus musculus; assay: Antiinflammatory activity in BALB/c mouse assessed as serum nitric oxide level at 100 mg/kg, po qd for 5 days followed by LPS challenge 1 hr after last compound dose on fifth day and measured 4 hrs post LPS challenge by Griess assay (reference value: 6.95 +/- 1.81 uM); type: functional
[2] = Apparent permeability from apical to basolateral side in human Caco2 cells; type: ADME, cell-based; details: Caco-2
[3] = test system: Mus musculus; assay: Antiarthritic activity in DBA/1J mouse collagen-induced arthritis model assessed as reduction in anticollagen antibody IgG1 level at 3 to 30 mg/kg, po administered once daily for 49 days starting from onset of disease and measured after 49 days of disease onset by ELISA method; type: functional, organism-based
[4] = Inhibition of concanavalin A-induced cell proliferation of T cells (unknown origin) at 10 uM after 72 hrs by MTT assay; type: functional
[5] = test system: Mus musculus; assay: Immunosuppressive activity in BALB/c mouse assessed as reduction in SRBC-induced humoral immunity by measuring IgM level at 3 to 30 mg/kg, po administered once daily for 14 days measured 4 hrs post last dose; type: functional, organism-based
[6] = test system: THP-1; assay: Inhibition of LPS-induced IL6 production in human THP1 cells after 24 hrs; type: functional, cell-based; details: THP-1, 24 h
[7] = test system: B-cell; assay: Inhibition of LPS-induced cell proliferation of B cells (unknown origin) at 10 uM after 72 hrs by MTT assay; type: functional
[8] = test system: Mus musculus; assay: Antiarthritic activity in BALB/c mouse assessed as reduction in SRBC-induced blood IL2 level administered orally once daily for 14 days measured 4 hrs post last dose by ELISA method; type: functional, organism-based
[9] = test system: THP-1; assay: Inhibition of LPS-induced nitric oxide production in human THP1 cells at 10 uM after 24 hrs by Griess assay; type: functional; details: THP-1, 24 h
[10] = Apparent permeability from basolateral to apical side in human Caco2 cells; type: ADME, cell-based; details: Caco-2
[11] = Solubility in PBS buffer; type: physicochemical
[12] = test system: Mus musculus; assay: Antiarthritic activity in BALB/c mouse assessed as reduction in SRBC-induced blood IL4 level administered orally once daily for 14 days measured 4 hrs post last dose by ELISA method; type: functional, organism-based
[13] = target: CYP3A4 (Homo sapiens, UniProt P08684); assay: Inhibition of CYP3A4 (unknown origin) at 10 uM; type: ADME
[14] = test system: THP-1; assay: Cytotoxicity against human THP1 cells after 48 hrs by MTT assay; type: cell-based; details: THP-1, 48 h
[15] = test system: Mus musculus; assay: Antiarthritic activity in DBA/1J mouse collagen-induced arthritis model assessed as reduction in anticollagen antibody IgG1 level at 3 to 30 mg/kg, po administered once daily for 49 days starting from onset of disease and measured after 14 days of disease onset by ELISA method; type: functional, organism-based
[16] = test system: Mus musculus; assay: Immunosuppressive activity in BALB/c mouse assessed as reduction in SRBC-induced DTH response at 3 to 30 mg/kg, po administered once daily for 14 days measured 4 hrs post last dose; type: functional, organism-based
[17] = test system: Mus musculus; assay: Antiarthritic activity in DBA/1J mouse collagen-induced arthritis model assessed as reduction in IL-1beta level at 3 to 30 mg/kg, po administered once daily for 49 days starting from onset of disease and measured after 3 to 49 days of disease onset by ELISA method; type: functional, organism-based
[18] = test system: Mus musculus; assay: Antiarthritic activity in DBA/1J mouse collagen-induced arthritis model assessed as reduction in IL6 level at 3 to 30 mg/kg, po administered once daily for 49 days starting from onset of disease and measured after 3 to 49 days of disease onset by ELISA method; type: functional, organism-based
[19] = target: T1, Cytochrome P450 1A2 (Homo sapiens, UniProt P05177); assay: Activation of CYP1A2 (unknown origin) assessed as increase in enzyme activity at 10 uM; type: ADME
T1 sequence (P05177 whole entry): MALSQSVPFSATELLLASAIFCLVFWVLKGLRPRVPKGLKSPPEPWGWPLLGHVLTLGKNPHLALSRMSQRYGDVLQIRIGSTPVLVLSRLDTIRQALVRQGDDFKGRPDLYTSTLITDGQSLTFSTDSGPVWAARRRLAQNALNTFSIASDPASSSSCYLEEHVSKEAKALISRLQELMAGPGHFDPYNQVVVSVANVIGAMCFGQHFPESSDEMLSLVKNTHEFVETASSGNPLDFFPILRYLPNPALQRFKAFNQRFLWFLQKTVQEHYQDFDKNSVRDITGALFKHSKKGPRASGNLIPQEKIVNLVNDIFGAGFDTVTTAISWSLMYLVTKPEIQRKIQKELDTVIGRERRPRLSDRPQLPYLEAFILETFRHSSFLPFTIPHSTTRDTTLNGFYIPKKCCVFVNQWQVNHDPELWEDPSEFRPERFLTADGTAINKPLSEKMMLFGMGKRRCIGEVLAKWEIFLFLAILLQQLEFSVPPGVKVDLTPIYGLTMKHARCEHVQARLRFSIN

[20] = test system: Mus musculus; assay: Antiinflammatory activity in BALB/c mouse assessed as serum IL6 level at 10 mg/kg, po qd for 5 days followed by LPS challenge 1 hr after last compound dose on fifth day and measured 4 hrs post LPS challenge by ELISA method (reference value: 410 +/- 95 pg/mL); type: functional
[21] = target: Cytochrome P450 2D6 (Homo sapiens, UniProt P10635); assay: Activation of CYP2D6 (unknown origin) assessed as increase in enzyme activity at 10 uM; type: ADME
[22] = target: CYP2C9 (Homo sapiens, UniProt P11712); assay: Inhibition of CYP2C9 (unknown origin) at 10 uM; type: ADME
[23] = Solubility in SIF solution; type: physicochemical
[24] = test system: Mus musculus; assay: Antiinflammatory activity in BALB/c mouse assessed as serum IL6 level at 100 mg/kg, po qd for 5 days followed by LPS challenge 1 hr after last compound dose on fifth day and measured 4 hrs post LPS challenge by ELISA method (reference value: 410 +/- 95 pg/mL); type: functional
[25] = Efflux ratio in human Caco2 cells; type: ADME, cell-based; details: Caco-2
[26] = Solubility in water; type: physicochemical
[27] = test system: THP-1; assay: Inhibition of LPS-induced TNFalpha production in human THP1 cells after 24 hrs; type: functional, cell-based; details: THP-1, 24 h
[28] = target: CYP2C19 (Homo sapiens, UniProt P33261); assay: Inhibition of CYP2C19 (unknown origin) at 10 uM; type: ADME
[29] = target: Inhibitor of NF-kappa-B kinase (IKK) (Homo sapiens) (UniProt O14920+O15111+Q9Y6K9); assay: Inhibition of IKKbeta expression in human THP1 cells at 20 to 100 uM by Western blotting method; type: functional, cell-based; details: THP-1
[30] = test system: Mus musculus; assay: Antiinflammatory activity in BALB/c mouse assessed as serum TNFalpha level at 100 mg/kg, po qd for 5 days followed by LPS challenge 1 hr after last compound dose on fifth day and measured 4 hrs post LPS challenge by ELISA method (reference value: 717 +/- 218 pg/mL); type: functional
[31] = test system: THP-1; assay: Inhibition of LPS-induced IL-1beta production in human THP1 cells at 10 uM after 24 hrs; type: functional; details: THP-1, 24 h
[32] = test system: Mus musculus; assay: Immunosuppressive activity in BALB/c mouse assessed as reduction in SRBC-induced humoral immunity by measuring IgG level at 3 to 30 mg/kg, po administered once daily for 14 days measured 4 hrs post last dose; type: functional, organism-based

Cytochrome P450 2D6, sequence (P10635 whole entry): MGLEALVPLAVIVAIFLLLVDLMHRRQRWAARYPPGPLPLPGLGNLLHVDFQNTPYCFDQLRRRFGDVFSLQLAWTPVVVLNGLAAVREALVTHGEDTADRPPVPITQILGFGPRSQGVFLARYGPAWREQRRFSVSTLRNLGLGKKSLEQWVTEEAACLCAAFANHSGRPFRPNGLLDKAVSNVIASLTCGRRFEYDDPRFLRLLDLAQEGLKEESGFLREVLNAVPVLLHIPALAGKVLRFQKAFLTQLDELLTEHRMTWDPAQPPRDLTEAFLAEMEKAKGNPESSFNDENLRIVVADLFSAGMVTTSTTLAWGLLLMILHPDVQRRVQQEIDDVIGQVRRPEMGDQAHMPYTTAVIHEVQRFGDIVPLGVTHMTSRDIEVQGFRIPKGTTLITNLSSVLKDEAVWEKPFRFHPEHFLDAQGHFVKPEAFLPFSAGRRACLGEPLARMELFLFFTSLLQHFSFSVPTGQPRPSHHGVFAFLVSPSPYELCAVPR
CYP3A4, sequence (P08684 whole entry): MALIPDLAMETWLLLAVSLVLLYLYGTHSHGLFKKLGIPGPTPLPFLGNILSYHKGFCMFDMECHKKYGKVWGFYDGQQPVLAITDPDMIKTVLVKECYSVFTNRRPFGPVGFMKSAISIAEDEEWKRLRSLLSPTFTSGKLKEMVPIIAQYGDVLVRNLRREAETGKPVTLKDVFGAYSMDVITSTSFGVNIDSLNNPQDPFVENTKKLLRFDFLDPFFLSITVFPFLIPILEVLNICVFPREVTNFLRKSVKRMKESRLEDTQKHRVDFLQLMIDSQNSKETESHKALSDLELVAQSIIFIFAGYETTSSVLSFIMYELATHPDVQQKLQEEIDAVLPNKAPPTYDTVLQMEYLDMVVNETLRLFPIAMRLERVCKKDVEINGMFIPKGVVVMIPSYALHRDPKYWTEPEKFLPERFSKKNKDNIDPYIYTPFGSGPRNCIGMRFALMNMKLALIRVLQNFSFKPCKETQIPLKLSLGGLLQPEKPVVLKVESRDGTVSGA
CYP2C19, sequence (P33261 whole entry): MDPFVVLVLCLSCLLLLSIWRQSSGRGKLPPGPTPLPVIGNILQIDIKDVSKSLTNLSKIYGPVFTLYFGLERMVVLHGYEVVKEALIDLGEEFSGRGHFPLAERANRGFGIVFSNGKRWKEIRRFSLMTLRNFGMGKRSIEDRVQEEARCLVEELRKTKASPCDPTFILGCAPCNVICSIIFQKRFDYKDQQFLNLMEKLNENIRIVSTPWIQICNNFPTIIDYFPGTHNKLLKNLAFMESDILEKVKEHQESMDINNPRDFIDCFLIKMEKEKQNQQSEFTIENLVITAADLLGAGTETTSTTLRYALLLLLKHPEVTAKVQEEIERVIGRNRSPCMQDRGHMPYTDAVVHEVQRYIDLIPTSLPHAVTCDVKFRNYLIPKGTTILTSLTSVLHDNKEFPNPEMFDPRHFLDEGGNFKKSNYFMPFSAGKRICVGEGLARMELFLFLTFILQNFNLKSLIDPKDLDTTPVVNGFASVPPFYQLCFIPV
CYP2C9, sequence (P11712 whole entry): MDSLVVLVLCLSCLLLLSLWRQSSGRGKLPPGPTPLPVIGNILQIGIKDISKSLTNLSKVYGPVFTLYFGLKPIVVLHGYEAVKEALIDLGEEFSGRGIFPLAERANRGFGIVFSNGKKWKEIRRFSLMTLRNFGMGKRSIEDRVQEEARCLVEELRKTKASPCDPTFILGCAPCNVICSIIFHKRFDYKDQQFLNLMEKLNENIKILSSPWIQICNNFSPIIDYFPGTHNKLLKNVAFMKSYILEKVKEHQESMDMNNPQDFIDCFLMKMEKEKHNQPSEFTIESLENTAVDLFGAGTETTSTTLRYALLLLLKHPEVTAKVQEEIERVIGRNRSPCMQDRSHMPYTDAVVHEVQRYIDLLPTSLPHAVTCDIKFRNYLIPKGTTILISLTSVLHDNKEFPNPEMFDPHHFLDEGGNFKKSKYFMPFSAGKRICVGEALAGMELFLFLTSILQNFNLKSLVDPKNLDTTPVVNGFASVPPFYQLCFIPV

Q: Which results are given for `CCN(CC)Cc1c(O)c(OC)c(O)c2c1C(=O)O[C@@H]1[C@@H](O)[C@H](O)[C@@H](CO)O[C@@H]21`?
A: Activity [1]: 3 µM; Papp A→B [2]: 0.72 ×10⁻⁶ cm/s; inhibition [3]: Active; inhibition at 10 µM [4]: 53.7%; inhibition [5]: Active; pIC50 [6]: 6.78; inhibition at 10 µM [7]: 47.9%; inhibition [8]: Dose-dependent effect; inhibition at 10 µM [9]: 41%; Papp B→A [10]: 1.59 ×10⁻⁶ cm/s; solubility [11]: > 1500 µg/mL; inhibition [12]: Dose-dependent effect; inhibition at 10 µM [13]: 15%; pIC50 [14]: 4.11; inhibition [15]: Active; inhibition [16]: Active; inhibition [17]: Active; inhibition [18]: Active; Activity [19]: 10%; Activity [20]: 102 pg/mL; Activity [21]: 36%; inhibition at 10 µM [22]: 32%; solubility [23]: > 1500 µg/mL; Activity [24]: 275 pg/mL; efflux ratio [25]: 2.2; solubility [26]: > 1500 µg/mL; pIC50 [27]: 4.87; inhibition at 10 µM [28]: 6%; inhibition [29]: Active; Activity [30]: 388 pg/mL; inhibition at 10 µM [31]: 41%; inhibition [32]: Active
